# US20220298138A1, “ENZYME INHIBITORS” (KALVISTA PHARMACEUTICALS LIMITED, priority 2019, published 2022)
# Experiments:
# Human FXIa = target: T1, Human FXIa (Homo sapiens, UniProt P03951); experiment: FXIa inhibitory activity in vitro (fluorogenic substrate Z-Gly-Pro-Arg-AFC), selectivity; format: biochemical; conditions: 25° C.
# T1 construct: Human FXIa (Enzyme Research Laboratories) was incubated; purchased Enzyme Research Laboratories
# Protocol: Determination of the % Inhibition for FXIa
# Human FXIa (Enzyme Research Laboratories) was incubated at 25° C. with the fluorogenic substrate Z-Gly-Pro-Arg-AFC and various concentrations of the test compound. Residual enzyme activity (initial rate of reaction) was determined by measuring the change in fluorescence at 410 nm and the IC50 value for the test compound was determined.
# Human Factor XIIa = target: T2, Human Factor XIIa (Homo sapiens, UniProt P00748); experiment: Factor XIIa inhibitory activity in vitro (fluorogenic substrate H-DPro-Phe-Arg-AFC); format: biochemical; conditions: 25° C., class symbols, read-out: Human FXIIa IC50
# T2 construct: purchased Enzyme Research Laboratories
# T2 sequence (P00748 373-615 limits assumed): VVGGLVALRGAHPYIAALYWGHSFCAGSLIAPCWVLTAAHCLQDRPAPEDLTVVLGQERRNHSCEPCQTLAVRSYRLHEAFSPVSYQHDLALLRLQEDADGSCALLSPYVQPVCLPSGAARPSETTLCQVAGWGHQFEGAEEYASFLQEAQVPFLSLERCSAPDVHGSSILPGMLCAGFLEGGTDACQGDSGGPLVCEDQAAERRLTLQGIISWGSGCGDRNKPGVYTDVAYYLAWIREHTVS
# Outline: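 Enzyme incubated at 25° C with fluorogenic substrate H-DPro-Phe-Arg-AFC and a range of compound concentrations. Residual activity taken as initial reaction rate from […], giving IC50.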
# [1] = numeric bound printed instead of category
# T1 sequence (P03951 388-625 limits assumed): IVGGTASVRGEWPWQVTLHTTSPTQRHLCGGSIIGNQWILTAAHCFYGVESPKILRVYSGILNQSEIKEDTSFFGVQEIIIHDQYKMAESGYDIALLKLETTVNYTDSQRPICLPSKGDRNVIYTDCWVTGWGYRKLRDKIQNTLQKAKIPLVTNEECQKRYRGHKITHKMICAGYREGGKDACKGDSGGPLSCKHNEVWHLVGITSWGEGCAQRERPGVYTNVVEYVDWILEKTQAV
# T1 sequence (P03951 19-387 partner limits assumed): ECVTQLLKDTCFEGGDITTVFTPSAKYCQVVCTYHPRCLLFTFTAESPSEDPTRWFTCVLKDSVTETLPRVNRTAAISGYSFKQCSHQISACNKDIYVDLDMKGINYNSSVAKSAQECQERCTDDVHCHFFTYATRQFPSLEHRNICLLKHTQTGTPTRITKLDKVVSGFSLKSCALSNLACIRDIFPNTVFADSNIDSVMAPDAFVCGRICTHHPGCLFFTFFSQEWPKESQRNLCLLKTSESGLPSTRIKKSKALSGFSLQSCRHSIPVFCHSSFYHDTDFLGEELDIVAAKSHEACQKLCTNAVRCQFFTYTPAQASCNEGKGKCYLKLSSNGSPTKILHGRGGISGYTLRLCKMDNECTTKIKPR
Structure (SMILES),IC50 (Human FXIa; category scale) [µM],IC50 (Human Factor XIIa) [µM],IC50 (Human FXIa; [1]) [µM]
CC(C)(NS(=O)(=O)c1ccc2ccccc2c1)C(=O)NCc1ccc2c(N)nccc2c1 [Example 18.105],10 to 40,10 to 40,–
Nc1nccc2cc(CNC(=O)CNC(=O)c3ccc(N4CCOCC4)cc3)ccc12 [Example 18.106],> 40,10 to 40,–
Nc1nccc2cc(CNC(=O)CNC(=O)c3ccc4ccccc4n3)ccc12 [Example 18.107],> 40,10 to 40,–
Nc1nccc2cc(CNC(=O)CNC(=O)c3ccc(-c4ccncc4)cc3)ccc12 [Example 18.108],> 40,10 to 40,–
Nc1nccc2cc(CNC(=O)CNC(=O)C(CCc3ccccc3)N3CCNCC3)ccc12 (centres unmarked) [Example 18.109],> 40,10 to 40,–
CC(C)N[C@H](CCc1ccccc1)C(=O)N1CCC[C@H]1C(=O)NCc1cnc2[nH]cc(Cl)c2c1 [Example 27.01],> 40,0.28 to 1,–
CC(C)N[C@H](CCCCN1CCCCC1)C(=O)N1CCC[C@H]1C(=O)NCc1cnc2[nH]cc(Cl)c2c1 [Example 27.02],3 to 10,0.1 to 0.279,–
CC(C)N[C@H](CCCCN1CCCCC1)C(=O)N[C@@H](Cc1ccc(F)c(F)c1)C(=O)NCc1ccc2[nH]cc(Cl)c2c1 [Example 27.03],10 to 40,< 0.03,–
CC(C)N[C@H](CCCCN1CCCCC1)C(=O)N[C@@H](Cc1ccc(F)c(F)c1)C(=O)NCc1cnc2[nH]cc(Cl)c2c1 [Example 27.04],> 40,0.03 to 0.1,–
N[C@H](CCCCN1CCCCC1)C(=O)N[C@@H](Cc1ccc(F)c(F)c1)C(=O)NCc1cnc2[nH]cc(Cl)c2c1 [Example 27.06],> 40,0.03 to 0.1,–
CC(C)N[C@H](CCCCN1CCCCC1)C(=O)N[C@@H](Cc1ccc(F)c(F)c1)C(=O)NCc1cccs1 [Example 27.07],> 40,3 to 10,–
CC(C)N[C@H](CCc1ccccc1)C(=O)N1CC[C@H]1C(=O)NCc1cnc2[nH]cc(Cl)c2c1 [Example 27.08],> 40,0.28 to 1,–
C[C@@H]1CCC[C@H](C)N1CC(=O)N1CCC(C(=O)NCc2ccc3c(N)nccc3c2)C1 (some centres unmarked) [Example 32.10],> 40,10 to 40,–
C[C@@H]1CCC[C@H](C)N1CC(=O)N1CC[C@H]1C(=O)NCc1ccc2c(N)nccc2c1 [Example 32.11],10 to 40,3 to 10,–
C[C@@H]1CCC[C@H](C)N1CC(=O)N1CC(C(=O)NCc2ccc3c(N)nccc3c2)C1 [Example 32.12],> 40,10 to 40,–
C[C@@H]1CCC[C@H](C)N1CC(=O)N1C[C@H]2[C@@H]([C@H]1C(=O)NCc1ccc3c(N)nccc3c1)C2(C)C [Example 32.13],> 40,10 to 40,–
C[C@@H]1CCC[C@H](C)N1CC(=O)N1CC2CC(C(=O)NCc3ccc4c(N)nccc4c3)C1C2 (some centres unmarked) [Example 32.14],> 40,10 to 40,–
C[C@@H]1CCC[C@H](C)N1CC(=O)N[C@H]1CCC[C@@H]1C(=O)NCc1ccc2c(N)nccc2c1 [Example 32.15],> 40,10 to 40,–
C[C@@H]1CCC[C@H](C)N1CC(=O)NC1(C(=O)NCc2ccc3c(N)nccc3c2)CC1 [Example 39.09],> 40,3 to 10,–
C[C@@H]1CCC[C@H](C)N1CC(=O)NC1(C(=O)NCc2ccc3c(N)nccc3c2)CCC1 [Example 39.10],10 to 40,3 to 10,–
C[C@@H]1CCC[C@H](C)N1CC(=O)NC1(C(=O)NCc2ccc3c(N)nccc3c2)CCOCC1 [Example 39.11],> 40,10 to 40,–
CC(=O)N1C[C@H](c2ccccc2)C[C@H]1C(=O)NCc1ccc2c(N)nccc2c1 [Example 43.01],> 40,3 to 10,–

Structure (SMILES),IC50 (Human FXIa; category scale) [µM],IC50 (Human Factor XIIa) [µM],IC50 (Human FXIa; [1]) [µM]
C[C@@H]1CCC[C@H](C)N1CC(=O)N1C[C@H](c2ccccc2)C[C@H]1C(=O)NCc1ccc2c(N)nccc2c1 [Example 43.02],10 to 40,0.28 to 1,–
Nc1nccc2cc(CNC(=O)[C@@H]3C[C@@H](c4ccccc4)CN3C(=O)[C@H](N)CCc3ccccc3)ccc12 [Example 43.03],10 to 40,0.28 to 1,–
CC(C)(O)C(=O)N1C[C@H](c2ccccc2)C[C@H]1C(=O)NCc1ccc2c(N)nccc2c1 [Example 43.04],10 to 40,10 to 40,–
Nc1nccc2cc(CNC(=O)[C@@H]3C[C@@H](c4ccccc4)CN3CC3CCNCC3)ccc12 [Example 43.05],> 40,10 to 40,–
Nc1nccc2cc(CNC(=O)[C@@H]3C[C@@H](c4ccccc4)CN3C(=O)[C@@H]3CCCN3)ccc12 [Example 43.06],10 to 40,1 to 3,–
CNC(C)(C)C(=O)N1C[C@H](c2ccccc2)C[C@H]1C(=O)NCc1ccc2c(N)nccc2c1 [Example 43.07],10 to 40,3 to 10,–
C[C@H](NC(=O)[C@H]1C[C@@H](c2ccccc2)CN1)C(=O)NCc1ccc2c(N)nccc2c1 [Example 45.01],3 to 10,0.28 to 1,–
C[C@H](NC(=O)[C@@H]1C=C(c2ccccc2)CN1)C(=O)NCc1ccc2c(N)nccc2c1 [Example 45.02],3 to 10,3 to 10,–
C[C@H](NC(=O)[C@H]1C[C@H](c2ccccc2)CN1)C(=O)NCc1ccc2c(N)nccc2c1 [Example 45.03],3 to 10,1 to 3,–
C[C@H](NC(=O)[C@H]1Cc2ccccc2CN1)C(=O)NCc1ccc2c(N)nccc2c1 [Example 45.04],3 to 10,10 to 40,–
C[C@H](NC(=O)[C@@H]1NCc2ccccc21)C(=O)NCc1ccc2c(N)nccc2c1 [Example 45.05],> 40,10 to 40,–
Nc1nccc2cc(CNC(=O)C3(NC(=O)[C@H](N)CCc4ccccc4)CC3)ccc12 [Example 54.01],> 40,0.28 to 1,–
Nc1nccc2cc(CNC(=O)C3(NC(=O)[C@H](N)CCc4ccccc4)CCC3)ccc12 [Example 54.02],10 to 40,1 to 3,–
Nc1nccc2cc(CNC(=O)C3(NC(=O)[C@H](N)CCc4ccccc4)CCOCC3)ccc12 [Example 54.03],> 40,3 to 10,–
CC(C)N[C@H](CCc1ccccc1)C(=O)N(C)[C@@H](C)C(=O)NCc1ccc2c(N)nccc2c1 [Example 65.01],3 to 10,0.28 to 1,–
C[C@@H](C(=O)NCc1ccc2c(N)nccc2c1)N(C)C(=O)[C@H](N)CCc1ccccc1 [Example 65.02],> 40,1 to 3,–
N=C(N)c1ccc(CNC(=O)[C@H](Cc2cccc3ccccc23)NC(=O)[C@H]2CCCN2)cc1 [Example 71.01],–,0.1 to 0.279,> 10
N=C(N)c1ccc(CNC(=O)[C@H](Cc2cccc3ccccc23)NC(=O)c2ccccn2)cc1 [Example 71.02],–,1 to 3,> 10
CCC(C)[C@@H](N)C(=O)N[C@H](CC1CCCC2CCCCC21)C(=O)NCc1ccc(C(=N)N)s1 (some centres unmarked) [Example 71.03],1 to 3,1 to 3,–
CC(C)[C@H](N)C(=O)N[C@H](CC1CCCC2CCCCC21)C(=O)NCc1ccc(C(=N)N)s1 (some centres unmarked) [Example 71.04],3 to 10,1 to 3,–
N=C(N)c1ccc(CNC(=O)[C@H](Cc2ccccc2)NC(=O)[C@@H](CC2CCCCC2)NCC(=O)O)cc1 [Example 71.05],0.3 to 1,3 to 10,–
